Molecular target: T1, Kv1.3 potassium channel (Homo sapiens, UniProt P22001)
T1 construct: expressed in transfected cells
Experiment: Kv1.3 potassium channel blocker activity, automated whole-cell patch clamp (Patchliner) in CHO-K1 cells stably expressing Kv1.3
Format: cell-based
Settings: 30 nM-100 μM
Procedure: This assay is used to evaluate the disclosed compounds' activities as Kv1.3 potassium channel blockers.
CHO-K1 cells stably expressing Kv1.3 were grown in DMEM containing 10% heat-inactivated FBS, 1 mM sodium pyruvate, 2 mM L-glutamine, and G418 (500 μg/ml). Cells were grown in culture flasks at 37° C. in a 5% CO2-humidified incubator.
The cells were bathed in an extracellular solution containing 140 mM NaCl, 4 mM KCl, 2 mM CaCl2), 1 mM MgCl2, 5 mM glucose, 10 mM HEPES; pH adjusted to 7.4 with NaOH; 295-305 mOsm. The internal solution contained 50 mM KCl, 10 mM NaCl, 60 mM KF, 20 mM EGTA, 10 mM HEPES; pH adjusted to 7.2 with KOH; 285 mOsm. All compounds were dissolved in DMSO at 30 mM. Compound stock solutions were freshly diluted with external solution to concentrations of 30 nM, 100 nM, 300 nM, 1 μM, 3 μM, 10 μM, 30 μM and 100 μM. The highest content of DMSO (0.3%) was present in 100 μM.
The currents were evoked by applying 100 ms depolarizing pulses from −90 mV (holding potential) to +40 mV were applied with 0.1 Hz frequency. Control (compound-free) and compound pulse trains for each compound concentration applied contained 20 pulses. 10-second breaks were used between pulse trains (see Table A below).
Whole-cell current recordings and compound application were enabled by means of an automated patch clamp platform Patchliner (Nanion Technologies GmbH). EPC 10 patch clamp amplifier (HEKA Elektronik Dr. Schulze GmbH) along with Patchmaster software (HEKA Elektronik Dr. Schulze GmbH) was used for data acquisition. Data were sampled at 10 kHz without filtering. Passive leak currents were subtracted online using a P/4 procedure (HEKA Elektronik Dr. Schulze GmbH). Increasing compound concentrations were applied consecutively to the same cell without washouts in between. Total compound incubation time before the next pulse train was not longer than 10 seconds. Peak current inhibition was observed during compound equilibration.
AUC and peak values were obtained with Patchmaster (HEKA Elektronik Dr. Schulze GmbH). To determine IC50, the last single pulse in the pulse train corresponding to a given compound concentration was used. Obtained AUC and peak values in the presence of compound were normalized to control values in the absence of compound. Using Origin (OridinLab), IC50 was derived from data fit to Hill equation: Icompound/Icontrol=(100−A)/(1+([compound]/IC50)nH)+A, where IC50 value is the concentration at which current inhibition is half-maximal, [compound] is the applied compound concentration, A is the fraction of current that is not blocked and nH is the Hill coefficient.

T1 sequence (P22001 whole entry): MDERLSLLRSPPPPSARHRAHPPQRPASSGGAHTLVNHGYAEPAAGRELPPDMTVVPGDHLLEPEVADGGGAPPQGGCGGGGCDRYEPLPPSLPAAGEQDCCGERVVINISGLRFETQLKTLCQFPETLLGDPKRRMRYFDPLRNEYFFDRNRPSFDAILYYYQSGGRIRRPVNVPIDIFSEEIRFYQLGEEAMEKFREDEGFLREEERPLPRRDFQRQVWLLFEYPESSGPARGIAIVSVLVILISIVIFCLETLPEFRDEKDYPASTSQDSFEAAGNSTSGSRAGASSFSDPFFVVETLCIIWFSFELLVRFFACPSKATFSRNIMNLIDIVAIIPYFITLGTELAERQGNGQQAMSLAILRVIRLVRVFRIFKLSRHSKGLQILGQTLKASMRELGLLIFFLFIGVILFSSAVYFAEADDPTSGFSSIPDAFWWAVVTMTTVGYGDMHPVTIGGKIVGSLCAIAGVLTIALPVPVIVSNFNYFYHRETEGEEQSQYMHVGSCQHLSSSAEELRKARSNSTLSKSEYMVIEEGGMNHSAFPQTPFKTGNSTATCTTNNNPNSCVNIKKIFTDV

Row | IC50 [µM] | Structure (SMILES)
1 | < 3 | O=C(C[C@H](O)CO)N1CC[C@]2(C1)C(=O)Nc1cc(Cl)c(Cl)cc12 [Compound 76, (S)-5,6-dichloro-1′-((S)-3,4-dihydroxybutanoyl)spiro[indoline-3,3′-pyrrolidin]-2-one]
2 | < 10 | O=C(C[C@@H](O)CO)N1CC[C@]2(C1)C(=O)Nc1cc(Cl)c(Cl)cc12 [Compound 77, (S)-5,6-dichloro-1′-((R)-3,4-dihydroxybutanoyl)spiro[indoline-3,3′-pyrrolidin]-2-one]
3 | < 10 | O=C(c1cnn(CCO)c1)N1CC[C@]2(C1)C(=O)Nc1cc(Cl)c(Cl)cc12 [Compound 78, (S)-5,6-dichloro-1′-(1-(2-hydroxyethyl)-1H-pyrazole-4-carbonyl)spiro[indoline-3,3′-pyrrolidin]-2-one]
4 | < 3 | O=C(c1cc(CO)[nH]n1)N1CC[C@]2(C1)C(=O)Nc1cc(Cl)c(Cl)cc12 [Compound 79, (S)-5,6-dichloro-1′-(5-(hydroxymethyl)-1H-pyrazole-3-carbonyl)spiro[indoline-3,3′-pyrrolidin]-2-one]
5 | < 1 | O=C(c1cn[nH]c1CO)N1CC[C@]2(C1)C(=O)Nc1cc(Cl)c(Cl)cc12 [Compound 80, (S)-5,6-dichloro-1′-(5-(hydroxymethyl)-1H-pyrazole-4-carbonyl)spiro[indoline-3,3′-pyrrolidin]-2-one]
6 | < 3 | CN1CC(C(=O)N2CC[C@]3(C2)C(=O)Nc2cc(Cl)c(Cl)cc23)CC1=O (stereo partly drawn) [Compound 81, (3S)-5,6-dichloro-1′-(1-methyl-5-oxopyrrolidine-3-carbonyl)spiro[indoline-3,3′-pyrrolidin]-2-one]
7 | < 3 | Cn1ccc(C(=O)N2CC[C@]3(C2)C(=O)Nc2cc(Cl)c(Cl)cc23)cc1=O [Compound 82, (S)-5,6-dichloro-1′-(1-methyl-2-oxo-1,2-dihydropyridine-4-carbonyl)spiro[indoline-3,3′-pyrrolidin]-2-one]
8 | < 10 | Cn1cc(C(=O)N2CC[C@]3(C2)C(=O)Nc2cc(Cl)c(Cl)cc23)ccc1=O [Compound 83, (S)-5,6-dichloro-1′-(1-methyl-6-oxo-1,6-dihydropyridine-3-carbonyl)spiro[indoline-3,3′-pyrrolidin]-2-one]
9 | < 1 | Nc1ccc(C(=O)N2CC[C@]3(C2)C(=O)Nc2cc(Cl)c(Cl)cc23)cn1 [Compound 84, (S)-1′-(6-aminonicotinoyl)-5,6-dichlorospiro[indoline-3,3′-pyrrolidin]-2-one]
10 | < 10 | O=C(N1CC[C@]2(C1)C(=O)Nc1cc(Cl)c(Cl)cc12)C1(O)CC1 [Compound 85, (S)-5,6-dichloro-1′-(1-hydroxycyclopropane-1-carbonyl)spiro[indoline-3,3′-pyrrolidin]-2-one]
11 | < 3 | CC(C)(O)C(=O)N1CC[C@]2(C1)C(=O)Nc1cc(Cl)c(Cl)cc12 [Compound 86, (S)-5,6-dichloro-1′-(2-hydroxy-2-methylpropanoyl)spiro[indoline-3,3′-pyrrolidin]-2-one]
12 | < 10 | CC(C)(O)CC(=O)N1CC[C@]2(C1)C(=O)Nc1cc(Cl)c(Cl)cc12 [Compound 87, (S)-5,6-dichloro-1′-(3-hydroxy-3-methylbutanoyl)spiro[indoline-3,3′-pyrrolidin]-2-one]
13 | < 3 | C[C@H](O)CC(=O)N1CC[C@]2(C1)C(=O)Nc1cc(Cl)c(Cl)cc12 [Compound 88, (S)-5,6-dichloro-1′-((S)-3-hydroxybutanoyl)spiro[indoline-3,3′-pyrrolidin]-2-one]
14 | < 3 | C[C@@H](O)CC(=O)N1CC[C@]2(C1)C(=O)Nc1cc(Cl)c(Cl)cc12 [Compound 89, (S)-5,6-dichloro-1′-((R)-3-hydroxybutanoyl)spiro[indoline-3,3′-pyrrolidin]-2-one]
15 | < 10 | O=C(CC1(O)CCC1)N1CC[C@]2(C1)C(=O)Nc1cc(Cl)c(Cl)cc12 [Compound 90, (S)-5,6-dichloro-1′-(2-(1-hydroxycyclobutyl)acetyl)spiro[indoline-3,3′-pyrrolidin]-2-one]
16 | < 3 | CC[C@H](O)C(=O)N1CC[C@]2(C1)C(=O)Nc1cc(Cl)c(Cl)cc12 [Compound 91, (S)-5,6-dichloro-1′-((S)-2-hydroxybutanoyl)spiro[indoline-3,3′-pyrrolidin]-2-one]
17 | < 10 | CC[C@@H](O)C(=O)N1CC[C@]2(C1)C(=O)Nc1cc(Cl)c(Cl)cc12 [Compound 92, (S)-5,6-dichloro-1′-((R)-2-hydroxybutanoyl)spiro[indoline-3,3′-pyrrolidin]-2-one]

Row | IC50 [µM] | Structure (SMILES)
18 | < 1 | COC[C@@H]1C[C@@H](C(=O)N2CC[C@]3(C2)C(=O)Nc2cc(Cl)c(Cl)cc23)CN1 [Compound 110, (3S)-5,6-dichloro-1′-[(3R,5S)-5-(methoxymethyl)pyrrolidine-3-carbonyl]-1H-spiro[indole-3,3′-pyrrolidin]-2-one]
19 | < 1 | COC[C@H]1C[C@@H](C(=O)N2CC[C@]3(C2)C(=O)Nc2cc(Cl)c(Cl)cc23)CN1 [Compound 111, (S)-5,6-dichloro-1′-((3R,5R)-5-(methoxymethyl)pyrrolidine-3-carbonyl)spiro[indoline-3,3′-pyrrolidin]-2-one]
20 | < 10 | O=C(CO)N1CC[C@@]2(C1)C(=O)Nc1cc(Cl)c(Br)cc12 [Compound 117, (R)-5-bromo-6-chloro-1′-(2-hydroxyacetyl)spiro[indoline-3,3′-pyrrolidin]-2-one]
21 | < 1 | O=C(CO)N1CC[C@]2(C1)C(=O)Nc1cc(Cl)c(Br)cc12 [Compound 118, (S)-5-bromo-6-chloro-1′-(2-hydroxyacetyl)spiro[indoline-3,3′-pyrrolidin]-2-one]
22 | < 10 | Cc1cc2c(cc1Cl)[C@@]1(CCN(C(=O)CO)C1)C(=O)N2 [Compound 119, (R)-5-chloro-1′-(2-hydroxyacetyl)-6-methylspiro[indoline-3,3′-pyrrolidin]-2-one]
23 | < 3 | O=C(CO)N1CC[C@@]2(C1)C(=O)Nc1c2cc(Cl)c(Cl)c1Cl [Compound 122, (3R)-5,6,7-trichloro-1′-(2-hydroxyacetyl)-1H-spiro[indole-3,3′-pyrrolidin]-2-one]
24 | < 1 | Cc1c(Cl)cc2c(c1F)NC(=O)[C@@]21CCN(C(=O)CO)C1 [Compound 127, (S)-5-chloro-7-fluoro-1′-(2-hydroxyacetyl)-6-methylspiro[indoline-3,3′-pyrrolidin]-2-one]
25 | < 3 | Nc1nnc(N2CC[C@]3(C2)C(=O)Nc2cc(Cl)c(Cl)cc23)o1 [Compound 132, (S)-1′-(5-amino-1,3,4-oxadiazol-2-yl)-5,6-dichlorospiro[indoline-3,3′-pyrrolidin]-2-one]
26 | < 1 | O=C(c1cc[nH]c1)N1CC[C@]2(C1)C(=O)Nc1cc(Cl)c(Cl)cc12 [Compound 135, (S)-5,6-dichloro-1′-(1H-pyrrole-3-carbonyl)spiro[indoline-3,3′-pyrrolidin]-2-one]
27 | < 1 | O=C(c1nnc[nH]1)N1CC[C@]2(C1)C(=O)Nc1cc(Cl)c(Cl)cc12 [Compound 136, (S)-5,6-dichloro-1′-(1H-1,2,4-triazole-3-carbonyl)spiro[indoline-3,3′-pyrrolidin]-2-one]
28 | < 1 | O=C(c1cn[nH]n1)N1CC[C@]2(C1)C(=O)Nc1cc(Cl)c(Cl)cc12 [Compound 137, (S)-5,6-dichloro-1′-(1H-1,2,3-triazole-4-carbonyl)spiro[indoline-3,3′-pyrrolidin]-2-one]
29 | < 1 | O=C1Nc2cc(Cl)c(Cl)cc2[C@]12CCN(S(=O)(=O)CCO)C2 [Compound 138, (3S)-5,6-dichloro-1′-(2-hydroxyethanesulfonyl)-1H-spiro[indole-3,3′-pyrrolidin]-2-one]
30 | < 1 | Nc1ccnc(N2CC[C@]3(C2)C(=O)Nc2cc(Cl)c(Cl)cc23)n1 [Compound 139, (S)-1′-(4-aminopyrimidin-2-yl)-5,6-dichlorospiro[indoline-3,3′-pyrrolidin]-2-one]
31 | < 1 | Cc1cc(Cl)cc2c1NC(=O)[C@@]21CCN(C(=O)CO)C1 [Compound 140, (S)-5-chloro-1′-(2-hydroxyacetyl)-7-methylspiro[indoline-3,3′-pyrrolidin]-2-one]
32 | < 3 | NS(=O)(=O)N1CC[C@]2(C1)C(=O)Nc1cc(Cl)c(Cl)cc12 [Compound 142, (S)-5,6-dichloro-2-oxospiro[indoline-3,3′-pyrrolidine]-1′-sulfonamide]
33 | < 1 | CS(=O)(=O)N1CC[C@]2(C1)C(=O)Nc1cc(Cl)c(Cl)cc12 [Compound 143]
